This passage reports TGI results from PubChem BioAssay (NCI).

Molecules are shown by their SMILES.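 Cells were grown in 96-well plates and exposed to each compound for 48 hours at five concentrations; endpoints were interpolated linearly between bracketing concentrations, or set to the highest concentration if not reached. At the TGI there is no net growth.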 A value given as a limit tells only on which side of the number the result lay.

Common to all, as to assay: inhibition of tumour cell growth, NCI panel, 48 h
Assay [1] relates to MCF7 breast.
For assay [2], the system named is RXF 393 renal.
The test system of assay [3] is SK-MEL-5 melanoma.
The subject of assay [4] is RPMI-8226 leukemia.
The subject of assay [5] is A498 renal.
The test system of assay [6] is SK-MEL-28 melanoma.
Assay [7] has as its system KM12 colon.
For assay [8], the system named is MDA-MB-231 breast.
Assay [9] deals with K-562 leukemia.
For assay [10], the system named is UO-31 renal.
Assay [11] has as its system UACC-62 melanoma.
Assay [12] concerns HOP-92 NSCLC.
In assay [13] the test system is MOLT-4 leukemia.
For assay [14], the system named is SNB-75 CNS.

With `[B-][P+](CC[P+]1([B-])[C@@H](C)[C@@H](O)[C@H](O)[C@@H]1C)(c1ccccc1)c1ccccc1OC` (some centres not stated), the TGI in [1] is 35.6 µM; in [2], 31.2 µM; in [3], 29.3 µM; in assay [4] it was 55.4 µM; in [5] it was 32 µM; in [6], 32.7 µM. Further, the TGI in [7] is 33.1 µM; in assay [8], 29.5 µM; in assay [9] it was 70.8 µM; in assay [10], 21.7 µM; in assay [11] it was 28.1 µM; in assay [12], 33 µM. Also, the values for the TGI in assay [13] and in assay [14] were 41.7 µM and 28.3 µM, respectively.
With `COc1ccccc1/C=C/C1=NN(c2cccc(S(=O)(=O)O)c2)C2(C1)C(Cl)C(=O)N2c1nc2ccccc2s1` (configuration not stated), the TGI in assay [1] was greater than 100 µM; in assay [2], greater than 87 µM; in assay [3], greater than 100 µM; in assay [4] it was 44 µM; in assay [5], greater than 100 µM; in assay [6], greater than 100 µM. The TGI in [7] is greater than 100 µM; in [8] it was greater than 100 µM; in assay [9] it was greater than 100 µM; in assay [10] it was 33.5 µM; in assay [11], greater than 100 µM; in assay [12] it was greater than 95 µM. Moreover, the figures for the TGI in assay [13] and in assay [14] were greater than 100 µM and greater than 96.3 µM, respectively.
For the compound `O=C(c1ccccc1)N1CCC(CC2(c3cc4ccccc4[nH]3)OCCO2)CC1`, the TGI in assay [1] is 43.9 µM; in [2] it was greater than 100 µM; in assay [3] it was 42.3 µM; in [4] it was 6.36 µM; in assay [5], 62.8 µM; in [6], 37.4 µM. The TGI is greater than 100 µM in assay [7]; greater than 100 µM in assay [8]; 37.6 µM in [9]; greater than 100 µM in assay [10]; 39.4 µM in assay [11]; 93 µM in assay [12]. In addition, the TGI in assay [13] is 58.1 µM; in assay [14] it was greater than 100 µM.
On to `Nc1nc(NCCCO)cc(=O)[nH]1`, for which the TGI in [1], in [2], in assay [3], in assay [4], in [5] and in assay [6] was greater than 100 µM in each case. Further, the TGI in [7], in [8], in assay [9], in [10], in [11] and in assay [12] was greater than 100 µM each time. Also, the TGI in [13] and in assay [14] was greater than 100 µM each time.
On to `NC1CCC(N(CC(=O)O)CC(=O)O)C(N(CC(=O)O)CC(=O)O)C1` (configuration not stated), for which the TGI in [1], in assay [2], in assay [3], in assay [4], in [5] and in [6] was greater than 100 µM in each case. The TGI in assay [7], in assay [8], in [9], in assay [10], in [11] and in assay [12] was greater than 100 µM each time. Moreover, the TGI in [13] and in assay [14] was greater than 100 µM each time.
With `O=C1O[C@H]2[C@H](OC(=O)c3cc(O)c(O)c(O)c3)[C@@H](OC(=O)c3cc(O)c(O)c4c3[C@@H]3C1=CC(=O)C(O)(O)C3(O)O4)[C@H](OC(=O)c1cc(O)c(O)c(O)c1)O[C@@H]2COC(=O)c1cc(O)c(O)c(O)c1` (some centres not stated), the TGI in assay [1], in assay [2], in [3], in assay [4], in assay [5] and in assay [6] was greater than 100 µM in each case. The TGI in [7] was 41.1 µM; in assay [8], greater than 100 µM; in [9], greater than 100 µM; in assay [10], greater than 100 µM; in [11], greater than 100 µM; in assay [12], greater than 100 µM. In addition, the TGI in assay [13] and in assay [14] was greater than 100 µM in each case.
On to `O=C1CCc2ccc(O)c(c2)Oc2ccc(cc2)C(Sc2ccccc2)CCO1` (configuration not stated), for which the TGI in assay [1] amounted to 43.8 µM; in assay [2] it was 35.4 µM; in [3], 24.8 µM; in assay [4] it was 36.4 µM; in [5], 31.8 µM; in [6], 31.6 µM. The TGI amounted to 29.5 µM in assay [7]; 19.2 µM in assay [8]; 40 µM in assay [9]; 33.4 µM in [10]; 32.5 µM in assay [11]; 22.2 µM in assay [12]. Further, the TGI was greater than 100 µM in [13] and 28.4 µM in assay [14].
Consider `CC(C)=CCC[C@@H](C)C1=C(O)C(Nc2ccccc2Cl)=C(C)C(=O)C1=O`, for which the TGI in assay [1] is greater than 75 µM; in assay [2] it was greater than 50.8 µM; in [3], 42.9 µM; in [4], greater than 55.8 µM; in assay [5], greater than 56.9 µM; in assay [6], greater than 75 µM. For the same compound, the TGI in assay [7] is 30 µM; in assay [8], greater than 70.8 µM; in assay [9] it was greater than 75 µM; in assay [10], greater than 49.5 µM; in assay [11] it was 36 µM; in assay [12] it was greater than 67.8 µM. The TGI in [13] was greater than 57.5 µM; in assay [14], greater than 52.3 µM.
